Reference: ChEMBL document CHEMBL3588817, “Discovery of 4,5,6,7-Tetrahydrobenzo[1,2-d]thiazoles as Novel DNA Gyrase Inhibitors Targeting the ATP-Binding Site” (J Med Chem, 2015)
Values after ≈ are worked out from the molar mass of the structure shown.

How the values were obtained:
Pseudomonas aeruginosa [1] = assay: Antibacterial activity against Pseudomonas aeruginosa ATCC 27853 assessed as inhibition of microbial growth by broth microdilution method; assay type: functional
Pseudomonas aeruginosa [2] = assay: Antibacterial activity against Pseudomonas aeruginosa ATCC 27853 assessed as inhibition of microbial growth at 50 uM by broth microdilution method; assay type: functional; settings: read-out: GI
Escherichia coli [3] = assay: Antibacterial activity against wild type Escherichia coli ATCC 25922 assessed as inhibition of microbial growth by broth microdilution method; assay type: functional
Staphylococcus aureus [4] = assay: Antibacterial activity against Staphylococcus aureus 25923 assessed as inhibition of microbial growth at 50 uM by broth microdilution method; assay type: functional; settings: read-out: GI
[5] = molecular target: DNA gyrase (Staphylococcus aureus) (UniProt P0A0K8+P20831); assay: Inhibition of Staphylococcus aureus DNA gyrase assessed as residual enzyme activity at 100 uM using relaxed pNO1 plasmid and biotinylated oligonucelotide incubated for 30 mins by fluorescence based DNA super-coiling assay; assay type: protein-complex assay
Escherichia coli [6] = assay: Inhibition of Escherichia coli DNA topoisomerase 4 assessed as residual enzyme activity at 100 uM using relaxed pNO1 plasmid and biotinylated oligonucelotide incubated for 30 mins by fluorescence based DNA relaxation assay
Escherichia coli [7] = assay: Antibacterial activity against wild type Escherichia coli ATCC 25922 assessed as inhibition of microbial growth at 50 uM by broth microdilution method; assay type: functional; settings: read-out: GI
Enterococcus faecalis [8] = assay: Antibacterial activity against Enterococcus faecalis ATCC 29212 assessed as inhibition of microbial growth by broth microdilution method; assay type: functional
Enterococcus faecalis [9] = assay: Antibacterial activity against Enterococcus faecalis ATCC 29212 assessed as inhibition of microbial growth at 50 uM by broth microdilution method; assay type: functional; settings: read-out: GI
[10] = molecular target: Topoisomerase IV (Staphylococcus aureus) (UniProt P0C1U9+P0C1S7); assay: Inhibition of Staphylococcus aureus DNA topoisomerase 4 assessed as residual enzyme activity at 100 uM using relaxed pNO1 plasmid and biotinylated oligonucelotide incubated for 30 mins by fluorescence based DNA relaxation assay; assay type: protein-complex assay
DNA gyrase = DNA gyrase (Escherichia coli, UniProt P0AES4+P0AES6); assay: Inhibition of Escherichia coli DNA gyrase using relaxed pNO1 plasmid and biotinylated oligonucelotide incubated for 30 mins by fluorescence based DNA super-coiling assay; assay type: protein-complex assay
Staphylococcus aureus [11] = assay: Antibacterial activity against Staphylococcus aureus 25923 assessed as inhibition of microbial growth by broth microdilution method; assay type: functional
Escherichia coli [12] = assay: Antibacterial activity against Escherichia coli imp4213::Tn10 by broth microdilution method; assay type: functional
Escherichia coli [13] = assay: Antibacterial activity against wild type Escherichia coli ATCC 25922 by broth microdilution method; assay type: functional
Escherichia coli [14] = assay: Antibacterial activity against efflux deficient Escherichia coli tolC::Tn10 lacking functional tolC gene by broth microdilution method

Sequence of DNA gyrase (Staphylococcus aureus) (P0A0K8 2-644 limits assumed): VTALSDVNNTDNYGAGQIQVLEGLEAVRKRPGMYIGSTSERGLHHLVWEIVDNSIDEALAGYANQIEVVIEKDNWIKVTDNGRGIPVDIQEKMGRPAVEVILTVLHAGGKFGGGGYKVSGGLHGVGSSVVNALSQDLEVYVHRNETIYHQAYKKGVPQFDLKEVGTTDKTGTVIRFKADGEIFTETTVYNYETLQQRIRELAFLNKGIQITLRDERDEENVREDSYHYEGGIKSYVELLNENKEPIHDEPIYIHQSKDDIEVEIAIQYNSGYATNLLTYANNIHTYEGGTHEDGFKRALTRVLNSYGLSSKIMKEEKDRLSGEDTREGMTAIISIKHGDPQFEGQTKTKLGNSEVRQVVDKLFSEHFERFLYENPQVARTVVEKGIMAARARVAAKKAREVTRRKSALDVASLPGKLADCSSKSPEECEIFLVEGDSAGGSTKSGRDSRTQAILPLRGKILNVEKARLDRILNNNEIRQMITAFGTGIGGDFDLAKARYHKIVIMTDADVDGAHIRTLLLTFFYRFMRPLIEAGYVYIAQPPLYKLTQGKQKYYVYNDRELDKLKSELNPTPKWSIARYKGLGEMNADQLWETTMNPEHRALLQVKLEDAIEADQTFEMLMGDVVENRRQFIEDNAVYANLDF
Sequence of DNA gyrase (Staphylococcus aureus) (P20831 whole entry partner): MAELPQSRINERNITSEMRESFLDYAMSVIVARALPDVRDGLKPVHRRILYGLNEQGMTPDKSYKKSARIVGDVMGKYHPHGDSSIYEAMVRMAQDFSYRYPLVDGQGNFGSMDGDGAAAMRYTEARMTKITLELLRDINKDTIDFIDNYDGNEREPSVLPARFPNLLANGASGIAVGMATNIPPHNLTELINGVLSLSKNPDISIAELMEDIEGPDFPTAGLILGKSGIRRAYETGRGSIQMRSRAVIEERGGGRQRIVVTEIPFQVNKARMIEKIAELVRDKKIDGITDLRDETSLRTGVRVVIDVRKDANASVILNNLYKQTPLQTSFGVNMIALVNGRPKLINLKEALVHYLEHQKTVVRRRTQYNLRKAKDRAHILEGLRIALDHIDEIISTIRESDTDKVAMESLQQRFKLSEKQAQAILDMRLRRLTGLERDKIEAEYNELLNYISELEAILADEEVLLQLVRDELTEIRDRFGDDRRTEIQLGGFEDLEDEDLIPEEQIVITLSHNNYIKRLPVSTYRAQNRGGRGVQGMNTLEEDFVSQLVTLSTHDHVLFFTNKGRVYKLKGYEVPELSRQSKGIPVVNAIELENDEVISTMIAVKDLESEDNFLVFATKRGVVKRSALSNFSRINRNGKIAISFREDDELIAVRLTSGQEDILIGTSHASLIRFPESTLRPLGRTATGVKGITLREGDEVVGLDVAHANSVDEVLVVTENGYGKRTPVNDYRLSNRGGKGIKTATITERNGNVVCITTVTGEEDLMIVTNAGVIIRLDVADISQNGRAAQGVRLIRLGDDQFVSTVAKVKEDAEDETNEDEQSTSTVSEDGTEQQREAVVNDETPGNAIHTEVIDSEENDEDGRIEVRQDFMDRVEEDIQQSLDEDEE

Row | SMILES | MIC (Pseudomonas aeruginosa [1]) | inhibition of growth at 50 µM (Pseudomonas aeruginosa [2]) | MIC (Escherichia coli [3]) | inhibition of growth at 50 µM (Staphylococcus aureus [4]) | Activity [5] | Activity (Escherichia coli [6]) | inhibition of growth at 50 µM (Escherichia coli [7]) | MIC (Enterococcus faecalis [8]) | inhibition of growth at 50 µM (Enterococcus faecalis [9]) | Activity [10] | IC50 (DNA gyrase) | MIC (Staphylococcus aureus [11]) | MIC (Escherichia coli [12]) | MIC (Escherichia coli [13]) | MIC (Escherichia coli [14])
1 | COC(=O)CCC(=O)Nc1nc2c(s1)C[C@@H](NC(=O)c1cc3ccccc3[nH]1)CC2 | > 125 µM | < 50% | > 125 µM | < 50% | 87% | 101% | < 50% | > 125 µM | < 50% | 104% | 9.1 µM | > 125 µM |  |  | 
2 | O=C(O)CC(=O)Nc1nc2c(s1)C[C@H](NC(=O)c1cc(Br)c(Br)[nH]1)CC2 | > 125 µM | < 50% | > 125 µM | < 50% | 108% | 96% | < 50% | > 125 µM | < 50% | 102% | 0.5 µM | > 125 µM | > 256 µg/mL | > 256 µg/mL | > 256 µg/mL
3 | Nc1nc2c(s1)C[C@@H](NC(=O)c1cc(Cl)c(Cl)[nH]1)CC2 | > 125 µM | < 50% | > 125 µM | < 50% | 85% | 97% | < 50% | > 125 µM | < 50% | 98% | 12 µM | > 125 µM | 64 µg/mL (≈ 193 µM) | > 256 µg/mL | 64 µg/mL (≈ 193 µM)
4 | Nc1nc2c(s1)C[C@@H](NC(=O)c1cc(Br)c[nH]1)CC2 | > 125 µM | < 50% | > 125 µM | < 50% |  |  | < 50% | > 125 µM | < 50% |  | 520 µM | > 125 µM |  |  | 
5 | CCOC(=O)C(=O)Nc1nc2c(s1)C[C@@H](NC(=O)c1cc3ccccc3[nH]1)CC2 | > 125 µM | < 50% | > 125 µM | < 50% | 76% | 101% | < 50% | > 125 µM | < 50% | 99% | 10 µM | > 125 µM |  |  | 
6 | O=C(O)CCC(=O)Nc1nc2c(s1)C[C@@H](NC(=O)c1cc3ccccc3[nH]1)CC2 | > 125 µM | < 50% | > 125 µM | < 50% | 95% | 99% | < 50% | > 125 µM | < 50% | 79% | 8.1 µM | > 125 µM | > 256 µg/mL | > 256 µg/mL | > 256 µg/mL
7 | Nc1nc2c(s1)C[C@@H](NC(=O)c1cc3cc(F)ccc3[nH]1)CC2 | > 125 µM | < 50% | > 125 µM | < 50% |  |  | < 50% | > 125 µM | < 50% |  | 270 µM | > 125 µM | > 256 µg/mL | > 256 µg/mL | > 256 µg/mL
8 | COC(=O)CCC(=O)Nc1nc2c(s1)C[C@@H](NC(=O)c1cc(Cl)c(Cl)[nH]1)CC2 | > 125 µM | < 50% | > 125 µM | < 50% | 86% | 100% | < 50% | > 125 µM | < 50% | 93% | 0.89 µM | > 125 µM | > 256 µg/mL | > 256 µg/mL | > 256 µg/mL
9 | Nc1nc2c(s1)CC(CNC(=O)c1cc(Br)c(Br)[nH]1)CC2 (configuration not stated) |  |  |  |  |  |  |  |  |  |  | 120 µM |  |  |  | 
10 | COC(=O)CC(=O)Nc1nc2c(s1)C[C@H](NC(=O)c1cc(Br)c(Br)[nH]1)CC2 | > 125 µM | < 50% | > 125 µM | < 50% | 64% | 101% | < 50% | > 125 µM | < 50% | 85% | 9.1 µM | > 125 µM | 256 µg/mL (≈ 492 µM) | > 256 µg/mL | 64 µg/mL (≈ 123 µM)
11 | COC(=O)CC(=O)Nc1ncc2c(n1)CCC(NC(=O)c1cc(Br)c(Br)[nH]1)C2 (configuration not stated) | > 125 µM | < 50% | > 125 µM | < 50% | 71% | 97% | < 50% | > 125 µM | < 50% | 98% | 2.6 µM | > 125 µM | 256 µg/mL (≈ 497 µM) | > 256 µg/mL | 64 µg/mL (≈ 124 µM)
12 | Nc1ncc2c(n1)CCC(NC(=O)c1cc(Br)c[nH]1)C2 (configuration not stated) | > 125 µM | < 50% | > 125 µM | < 50% | 100% | 97% | < 50% | > 125 µM | < 50% | 105% | 35 µM | > 125 µM |  |  | 
13 | O=C(O)CC(=O)Nc1nc2c(s1)C[C@@H](NC(=O)c1cc(Br)c[nH]1)CC2 | > 125 µM | < 50% | > 125 µM | < 50% | 110% | 96% | < 50% | > 125 µM | < 50% | 97% | 14 µM | > 125 µM |  |  | 
14 | Nc1ncc2c(n1)CCC(NC(=O)c1cc(Cl)c(Cl)[nH]1)C2 (configuration not stated) |  |  |  |  | 90% | 96% |  |  |  | 106% | 5.7 µM |  |  |  | 
15 | Nc1nc2c(s1)C[C@@H](NC(=O)c1cc3ccccc3[nH]1)CC2 |  |  |  |  | 87% | 103% |  |  |  | 100% | 21 µM |  |  |  | 
16 | Nc1ncc2c(n1)CCC(NC(=O)c1cc(Br)c(Br)[nH]1)C2 (configuration not stated) | > 125 µM | < 50% | > 125 µM | < 50% | 96% | 102% | < 50% | > 125 µM | < 50% | 98% | 2.9 µM | > 125 µM | > 256 µg/mL | > 256 µg/mL | > 256 µg/mL
17 | Nc1ncc2c(n1)CCC(NC(=O)c1cc3ccccc3[nH]1)C2 (configuration not stated) | > 125 µM | < 50% | > 125 µM | < 50% | 119% | 97% | < 50% | > 125 µM | < 50% | 103% | 29 µM | > 125 µM |  |  | 
18 | O=C1CCN2C(=N1)SC1=C2CC[C@H](NC(=O)c2cc(Br)c(Br)[nH]2)C1 | > 125 µM | < 50% | > 125 µM | < 50% |  |  | < 50% | > 125 µM | < 50% |  | 12 µM | > 125 µM | > 256 µg/mL | > 256 µg/mL | > 256 µg/mL
19 | Nc1nc2c(s1)C[C@H](NC(=O)c1cc(Br)c(Br)[nH]1)CC2 | > 125 µM | < 50% | > 125 µM | < 50% | 118% | 96% | < 50% | > 125 µM | < 50% | 92% | 41 µM | > 125 µM | 64 µg/mL (≈ 152 µM) | > 256 µg/mL | 64 µg/mL (≈ 152 µM)
20 | Nc1ncc2c(n1)CCC(CNC(=O)c1cc(Br)c(Br)[nH]1)C2 (configuration not stated) |  |  |  |  |  |  |  |  |  |  | 170 µM |  |  |  | 
21 | COC(=O)CC(=O)Nc1nc2c(s1)C[C@@H](NC(=O)c1cc(Br)c[nH]1)CC2 | > 125 µM | < 50% | > 125 µM | < 50% | 100% | 95% | < 50% | > 125 µM | < 50% | 104% | 25 µM | > 125 µM |  |  | 
22 | COC(=O)CC(=O)Nc1nc2c(s1)C[C@@H](NC(=O)c1cc3ccccc3[nH]1)CC2 | > 125 µM | < 50% | > 125 µM | < 50% |  |  | < 50% | > 125 µM | < 50% |  | 35 µM | > 125 µM | > 256 µg/mL | > 256 µg/mL | > 256 µg/mL
